# PubChem BioAssay (NCI)
#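 Dose response: 5 concentrations. Exposure: 48 h. Format: 96-well plates. Endpoint: linear interpolation; highest concentration if not reached. GI50 is the concentration that inhibits growth by half. The concentration for full growth arrest is given as TGI.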
# Legend:
# Assay in all cases: NCI tumour cell line growth inhibition, 48 h
# SNB-19 CNS = tested on: SNB-19 CNS
# NCI-H460 lung = tested on: NCI-H460 lung
# LOX IMVI melanoma = tested on: LOX IMVI melanoma
# TK-10 renal = tested on: TK-10 renal
# SN12C renal = tested on: SN12C renal
# MOLT-4 leukemia = tested on: MOLT-4 leukemia
# HOP-92 NSCLC = tested on: HOP-92 NSCLC
# NCI/ADR-RES ovarian = tested on: NCI/ADR-RES ovarian
# COLO 205 colon = tested on: COLO 205 colon
# HS 578T breast = tested on: HS 578T breast
# K-562 leukemia = tested on: K-562 leukemia
# SF-295 CNS = tested on: SF-295 CNS
# MDA-MB-468 breast = tested on: MDA-MB-468 breast
# NCI-H23 lung = tested on: NCI-H23 lung
# IGROV1 ovarian = tested on: IGROV1 ovarian
# UACC-62 melanoma = tested on: UACC-62 melanoma
# A498 renal = tested on: A498 renal
# M14 melanoma = tested on: M14 melanoma
# SK-OV-3 ovarian = tested on: SK-OV-3 ovarian
# RXF 393 renal = tested on: RXF 393 renal
# HOP-62 NSCLC = tested on: HOP-62 NSCLC
# MDA-MB-231 breast = tested on: MDA-MB-231 breast
# DU-145 prostate = tested on: DU-145 prostate
# PC-3 prostate = tested on: PC-3 prostate
# OVCAR-4 ovarian = tested on: OVCAR-4 ovarian
# UO-31 renal = tested on: UO-31 renal
# HL-60(TB) leukemia = tested on: HL-60(TB) leukemia
# HCC-2998 colon = tested on: HCC-2998 colon
# MALME-3M melanoma = tested on: MALME-3M melanoma
compound,measurement,setting,value
C=C1CCC2C3(C)COC(c4ccccc4)OC3CCC2(C)C1CC(Sc1ccccc1)C1=CCOC1=O (stereo not drawn),GI50,SNB-19 CNS,45.1 µM
same,TGI,SNB-19 CNS,> 100 µM
same,GI50,NCI-H460 lung,17.4 µM
same,TGI,NCI-H460 lung,> 100 µM
same,GI50,LOX IMVI melanoma,3.43 µM
same,TGI,LOX IMVI melanoma,14.3 µM
same,GI50,TK-10 renal,76.1 µM
same,TGI,TK-10 renal,> 100 µM
same,GI50,SN12C renal,10.4 µM
same,TGI,SN12C renal,> 100 µM
same,GI50,MOLT-4 leukemia,2.97 µM
same,TGI,MOLT-4 leukemia,> 100 µM
same,GI50,HOP-92 NSCLC,6.54 µM
same,TGI,HOP-92 NSCLC,41.9 µM
same,GI50,NCI/ADR-RES ovarian,4.78 µM
same,TGI,NCI/ADR-RES ovarian,26.4 µM
same,GI50,COLO 205 colon,20.3 µM
same,TGI,COLO 205 colon,46.8 µM
same,GI50,HS 578T breast,37 µM
same,TGI,HS 578T breast,> 100 µM
same,GI50,K-562 leukemia,3.88 µM
same,TGI,K-562 leukemia,> 100 µM
same,GI50,SF-295 CNS,21.3 µM
same,TGI,SF-295 CNS,> 100 µM
same,GI50,MDA-MB-468 breast,4.8 µM
same,TGI,MDA-MB-468 breast,26.4 µM
same,GI50,NCI-H23 lung,25.7 µM
same,TGI,NCI-H23 lung,> 100 µM
same,GI50,IGROV1 ovarian,17.3 µM
same,TGI,IGROV1 ovarian,> 100 µM
same,GI50,UACC-62 melanoma,10.3 µM
same,TGI,UACC-62 melanoma,27.7 µM
same,GI50,A498 renal,> 100 µM
same,TGI,A498 renal,> 100 µM
same,GI50,M14 melanoma,9.87 µM
same,TGI,M14 melanoma,35 µM
same,GI50,SK-OV-3 ovarian,> 100 µM
same,TGI,SK-OV-3 ovarian,> 100 µM
same,GI50,RXF 393 renal,6.61 µM
same,TGI,RXF 393 renal,43 µM
same,GI50,HOP-62 NSCLC,72.2 µM
same,TGI,HOP-62 NSCLC,> 100 µM
same,GI50,MDA-MB-231 breast,13.7 µM
same,TGI,MDA-MB-231 breast,49 µM
same,GI50,DU-145 prostate,18.5 µM
same,TGI,DU-145 prostate,> 100 µM
same,GI50,PC-3 prostate,5.88 µM
same,TGI,PC-3 prostate,> 100 µM
same,GI50,OVCAR-4 ovarian,25.5 µM
same,TGI,OVCAR-4 ovarian,> 100 µM
same,GI50,UO-31 renal,6.36 µM
same,TGI,UO-31 renal,> 100 µM
same,GI50,HL-60(TB) leukemia,2.66 µM
same,TGI,HL-60(TB) leukemia,8.66 µM
same,GI50,HCC-2998 colon,22.3 µM
same,TGI,HCC-2998 colon,> 100 µM
same,GI50,MALME-3M melanoma,27.9 µM
same,TGI,MALME-3M melanoma,> 100 µM
